The structures appear in SMILES notation. Read-outs that look alike come from different tables or passages of the source.

Experiment [1] has as its target T1, human recombinant GST-PAK1-KD protein (Homo sapiens, UniProt Q13153).
T1 construct: residues #249-545 of human PAK1, UniProtKP/Swiss Q13153; His6 (N); made in house; host or cells: Sf9 insect cells, pAcGP67 baculovirus expression vector
As to the kind of experiment: GST-PAK1-KD (kinase domain) biochemical assay, microfluidic mobility shift.

Experiment [2] concerns group I PAKs (PAK1-3) in EBC1 cells, MEK1 phosphorylation at S298. In words: Cellular PAK assay: MEK1 (S298) phosphorylation in EBC1 cells, HTRF. The class given is cell-based. As to conditions: Homo sapiens, EBC-1, 2 h treatment, Example 66. Here is the method: Group I PAKs (PAK1-3) are activated upon binding to the Rho GTPases, Rac1 and Cdc42. […] The inhibition of group I PAKs in EBC1 cells is assessed by detecting changes in the level of MEK1 phosphorylation at S298 using homogenous time-resolved fluorescence (HTRF). […] Following inhibitor treatment, cells were lysed with 25 μL of 1× cellular kinase lysis buffer (Cisbio) containing 1× cellular kinase blocking reagent (Cisbio). Cellular lysis was carried out at 4° C. for 2 h with constant shaking before lysate (16 μL) was transferred to white 384-well ProxiPlates™ (Perkin Elmer).
(TR-FRET usually uses a lanthanide donor and a delayed reading to cut background.)

Setting [3] is: GST-PAK1-KD Inhibition Assay - Example 65, read-out: PAK1 inhibition Ki.
Setting [4] is: Table I, PAK1 Ki class, read-out: Ki.
[5] abbreviates: Table II, PAK1 Ki class, read-out: Ki.

T1 sequence (Q13153 249-545): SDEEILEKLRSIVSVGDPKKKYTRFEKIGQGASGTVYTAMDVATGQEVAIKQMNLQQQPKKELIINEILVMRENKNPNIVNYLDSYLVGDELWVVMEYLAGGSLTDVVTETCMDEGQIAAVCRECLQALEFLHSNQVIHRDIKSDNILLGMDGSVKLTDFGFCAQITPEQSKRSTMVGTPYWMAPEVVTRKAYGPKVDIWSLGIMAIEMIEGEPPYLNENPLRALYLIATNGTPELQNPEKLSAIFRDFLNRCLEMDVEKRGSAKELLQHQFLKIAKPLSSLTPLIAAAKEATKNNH

The term Ki denotes a measure of affinity in units of concentration, obtained from inhibition or displacement. As a reminder, the IC50 is the midpoint of a concentration-inhibition curve. Lower therefore signals greater potency in that assay. As to `c1cc(CNc2nccc(Nc3cc(C4CC4)[nH]n3)n2)c2nc[nH]c2c1` [I-39, N^2-((1H-benzo[d]imidazol-4-yl)methyl)-N^4-(5-cyclopropyl-1H-pyrazol-3-yl)pyrimidine-2,4-diamine], the Ki in experiment [1] (setting [3]) is 74.7 nM; in experiment [1] (setting [4]), 50 to 250 nM. Further, in experiment [2], half-maximal inhibition (IC50) required 205 nM.

On to `C[C@H](Nc1nccc(Nc2cc(CC3CC3)[nH]n2)n1)c1ccc2[nH]cnc2c1` [I-45, (S)—N^2-(1-(1H-benzo[d]imidazol-5-yl)ethyl)-N^4-(5-(cyclopropylmethyl)-1H-pyrazol-3-yl)pyrimidine-2,4-diamine], for which the Ki in experiment [1] (setting [3]) was 41 nM; in experiment [1] (setting [4]), below 50 nM. For the same molecule, the IC50 in experiment [2] was 1200 nM.

With `c1cc(CNc2nccc(Nc3cc(C4CC4)[nH]n3)n2)c2cn[nH]c2c1` [I-59, N^2-((1H-Indazol-4-yl)methyl)-N^4-(5-cyclopropyl-1H-pyrazol-3-yl)pyrimidine-2,4-diamine], the Ki in experiment [1] (setting [3]) is 37 nM; in experiment [1] (setting [4]), below 50 nM. Also, the midpoint of inhibition in experiment [2], the IC50, lay at 104 nM.

In the case of `C[C@H](Nc1nccc(Nc2cc([C@H]3CC3(F)F)[nH]n2)n1)c1ccc2[nH]cnc2c1` [I-62, N^2—((S)-1-(1H-benzo[d]imidazol-5-yl)ethyl)-N^4-(5-((R)-2,2-difluorocyclopropyl)-1H-pyrazol-3-yl)pyrimidine-2,4-diamine], the Ki in experiment [1] (setting [3]) is 5.13 nM; in experiment [1] (setting [4]), below 50 nM. Besides, in experiment [2], the IC50 turned out to be 244 nM.

As for `Clc1cnc(NCc2ccc3[nH]cnc3c2Cl)nc1Nc1cc(C2CC2)[nH]n1` [I-106, 5-chloro-N^2-((4-chloro-1H-benzo[d]imidazol-5-yl)methyl)-N^4-(5-cyclopropyl-1H-pyrazol-3-yl)pyrimidine-2,4-diamine], the Ki was 14.8 nM in experiment [1] (setting [3]) and below 50 nM in experiment [1] (setting [4]). Half-maximal inhibition in experiment [2] (IC50) was put at 1300 nM.

In the case of `Clc1c(CNc2nccc(Nc3cc(C4CCCO4)[nH]n3)n2)ccc2[nH]cnc12` (stereo not drawn) [I-109, N^2-((4-chloro-1H-benzo[d]imidazol-5-yl)methyl)-N^4-(5-(tetrahydrofuran-2-yl)-1H-pyrazol-3-yl)pyrimidine-2,4-diamine], the Ki was 27.5 nM in experiment [1] (setting [3]) and below 50 nM in experiment [1] (setting [4]). Inhibition in experiment [2] was half-maximal at 786 nM (IC50).

As to `C[C@H](Nc1nccc(Nc2cc(C3CCC3)[nH]n2)n1)c1ccc2[nH]ccc2c1` [I-114, (S)—N^2-(1-(1H-indol-5-yl)ethyl)-N^4-(5-cyclobutyl-1H-pyrazol-3-yl)pyrimidine-2,4-diamine], the Ki in experiment [1] (setting [3]) was 6.75 nM; in experiment [1] (setting [4]), below 50 nM. In experiment [2], this molecule came in with an IC50 of 133 nM.

`CN(Cc1ccc2[nH]cnc2c1Cl)c1nccc(Nc2cc(C3COC3)[nH]n2)n1` [II-2, N^2-[(4-Chloro-1H-benzimidazol-5-yl)methyl]-N^2-methyl-N4-[5-(oxetan-3-yl)-1H-pyrazol-3-yl]pyrimidine-2,4-diamine]: the results for the Ki in experiment [1] (setting [3]) and in experiment [1] (setting [5]) were 7.1 nM and below 50 nM, respectively. The molecule further returned an IC50 in experiment [2] of 475 nM.

Consider `CCN(Cc1ccc2[nH]cnc2c1Cl)c1nccc(Nc2cc(C(C)C)[nH]n2)n1` [II-11, N^2-((4-Chloro-1H-benzo[d]imidazol-5-yl)methyl)-N^2-ethyl-N^4-(5-isopropyl-1H-pyrazol-3-yl)pyrimidine-2,4-diamine], for which the Ki in experiment [1] (setting [3]) was 1.6 nM; in experiment [1] (setting [5]), below 50 nM. The same molecule displayed an IC50 in experiment [2] of 43 nM.

As to `Fc1cnc(NCc2cc(Cl)cc3[nH]cnc23)nc1Nc1cc(C2CC2)[nH]n1` [II-23, N^2-((6-Chloro-1H-benzo[d]imidazol-4-yl)methyl)-N^4-(5-cyclopropyl-1H-pyrazol-3-yl)-5-fluoropyrimidine-2,4-diamine], the Ki in experiment [1] (setting [3]) is 36 nM; in experiment [1] (setting [5]) it was below 50 nM. In experiment [2], this molecule registered an IC50 of 188 nM.

Turning to `Cc1n[nH]c2cc(Cl)cc(CNc3ncc(F)c(Nc4cc(C5CC5)[nH]n4)n3)c12` [II-24, N^2-((6-Chloro-3-methyl-1H-indazol-4-yl)methyl)-N^4-(5-cyclopropyl-1H-pyrazol-3-yl)-5-fluoropyrimidine-2,4-diamine], the Ki in experiment [1] (setting [3]) is 41.3 nM; in experiment [1] (setting [5]) it was below 50 nM. This molecule came in with an IC50 in experiment [2] of 339 nM.

For `CCOc1cc(Nc2ccnc(N(C)Cc3ccc4[nH]cnc4c3Cl)n2)n[nH]1` [II-33, N^2-((4-Chloro-1H-benzo[d]imidazol-5-yl)methyl)-N^4-(5-ethoxy-1H-pyrazol-3-yl)-N^2-methylpyrimidine-2,4-diamine], the figures for the Ki in experiment [1] (setting [3]) and in experiment [1] (setting [5]) were 97.9 nM and 50 to 250 nM, respectively. Also, the midpoint of inhibition in experiment [2], the IC50, lay at 648 nM.

On to `CN(Cc1ccc2nc[nH]c2c1Cl)c1nccc(Nc2cc(CCC#N)[nH]n2)n1` [II-45, 3-(3-(2-(((4-Chloro-3H-benzo[d]imidazol-5-yl)methyl)(methyl)amino)pyrimidin-4-ylamino)-1H-pyrazol-5-yl)propanenitrile], for which the Ki is 165 nM in experiment [1] (setting [3]) and 50 to 250 nM in experiment [1] (setting [5]). This molecule came in with an IC50 in experiment [2] of 1900 nM.

Take `CCN(Cc1ccc2[nH]cnc2c1Cl)c1nccc(Nc2cc([C@@H]3C[C@@H]3F)[nH]n2)n1` [II-51, N^2-((4-chloro-1H-benzo[d]imidazol-5-yl)methyl)-N^2-ethyl-N^4-(5-((1S,2S)-2-fluorocyclopropyl)-1H-pyrazol-3-yl)pyrimidine-2,4-diamine]: the Ki in experiment [1] (setting [3]) was 2.5 nM; in experiment [1] (setting [5]), below 50 nM. Besides, in experiment [2], the midpoint of inhibition, the IC50, lay at 66.1 nM.

Turning to `CC(CO)N(Cc1cc(F)cc2[nH]ncc12)c1nccc(Nc2cc(C3CC3)[nH]n2)n1` (stereo not drawn) [II-56, 2-((4-((5-cyclopropyl-1H-pyrazol-3-yl)amino)pyrimidin-2-yl)((6-fluoro-1H-indazol-4-yl)methyl)amino)propan-1-ol], the Ki in experiment [1] (setting [3]) was 4.2 nM; in experiment [1] (setting [5]), below 50 nM. In experiment [2], this molecule had an IC50 of 70.8 nM.

With `Fc1cc(CN(CCN2CCCC2)c2nccc(Nc3cc(C4CC4)[nH]n3)n2)c2cn[nH]c2c1` [II-59, N^4-(5-cyclopropyl-1H-pyrazol-3-yl)-N^2-((6-fluoro-1H-indazol-4-yl)methyl)-N^2-(2-(pyrrolidin-1-yl)ethyl)pyrimidine-2,4-diamine], the results for the Ki in experiment [1] (setting [3]) and in experiment [1] (setting [5]) were 6 nM and below 50 nM, respectively. In addition, inhibition in experiment [2] was half-maximal at 257 nM (IC50).

As to `CN(C)CCN(Cc1cc(F)cc2[nH]ncc12)c1nccc(Nc2cc([C@@H]3C[C@@H]3F)[nH]n2)n1` [II-73, N^2-(2-(dimethylamino)ethyl)-N^2-((6-fluoro-1H-indazol-4-yl)methyl)-N^4-(5-((1S,2S)-2-fluorocyclopropyl)-1H-pyrazol-3-yl)pyrimidine-2,4-diamine], the Ki in experiment [1] (setting [3]) was 13 nM; in experiment [1] (setting [5]), below 50 nM. Further, in experiment [2], the IC50 turned out to be 419 nM.

Turning to `COc1cc(CNc2nccc(Nc3cc(C4CC4)[nH]n3)n2)c2cn[nH]c2c1` [II-74, N^4-(5-cyclopropyl-1H-pyrazol-3-yl)-N^2-((6-methoxy-1H-indazol-4-yl)methyl)pyrimidine-2,4-diamine], the Ki in experiment [1] (setting [3]) is 13.6 nM; in experiment [1] (setting [5]) it was below 50 nM. The IC50 in experiment [2] is 189 nM.

For the molecule `CN(Cc1ccc2[nH]cnc2c1Cl)c1nccc(Nc2cc(C(F)F)[nH]n2)n1` [II-81, N^2-((4-chloro-1H-benzo[d]imidazol-5-yl)methyl)-N^4-(5-(difluoromethyl)-1H-pyrazol-3-yl)-N^2-methylpyrimidine-2,4-diamine], the figures for the Ki in experiment [1] (setting [3]) and in experiment [1] (setting [5]) were 19.7 nM and below 50 nM, respectively. Besides, the IC50 in experiment [2] worked out at 235 nM.

With `COCCN(Cc1cc(F)cc2[nH]ncc12)c1nccc(Nc2cc(C3CC3)[nH]n2)n1` [II-94, N^4-(5-cyclopropyl-1H-pyrazol-3-yl)-N^2-((6-fluoro-1H-indazol-4-yl)methyl)-N^2-(2-methoxyethyl)pyrimidine-2,4-diamine], the results for the Ki in experiment [1] (setting [3]) and in experiment [1] (setting [5]) were 36.8 nM and below 50 nM, respectively. In experiment [2], this molecule yielded a 50% inhibitory concentration (IC50) of 64.1 nM.

For the molecule `CN(Cc1ccc2[nH]cnc2c1)c1nc(Nc2cc(C3CC3)[nH]n2)cc(C(C)(C)O)n1` [II-97, 2-[2-[(1H-Benzoimidazol-5-ylmethyl)-methyl-amino]-6-(5-cyclopropyl-1H-pyrazol-3-ylamino)-pyrimidin-4-yl]-propan-2-ol], the Ki is 41.7 nM in experiment [1] (setting [3]) and below 50 nM in experiment [1] (setting [5]). Moreover, the IC50 in experiment [2] came to 1700 nM.

For `COCCc1cc(Nc2ccnc(N(C)Cc3ccc4[nH]cnc4c3Cl)n2)n[nH]1` [II-102, N^2-((4-chloro-1H-benzo[d]imidazol-5-yl)methyl)-N^4-(5-(2-methoxyethyl)-1H-pyrazol-3-yl)-N^2-methylpyrimidine-2,4-diamine], the values for the Ki in experiment [1] (setting [3]) and in experiment [1] (setting [5]) were 63.3 nM and 50 to 250 nM, respectively. Moreover, the midpoint of inhibition in experiment [2], the IC50, lay at 1500 nM.

Source of the values: patent US8637537B2, “Serine/threonine kinase inhibitors” (Genentech, Inc., priority 2011, dated 2014).
